Data published in ChEMBL document CHEMBL5335808, “Design, synthesis of new 3H-imidazo[4,5-b]pyridine derivatives and evaluation of their inhibitory properties as mixed lineage kinase 3 inhibitors” (Bioorg Med Chem Lett, 2024).

Tests used:
[1] = Lipophilicity, LogP of the compound; type: physicochemical; conditions: octanol/water
[2] = Permeability of the compound by PAMPA method; type: ADME; conditions: read-out: Peff
[3] = molecular target: T1, Mitogen-activated protein kinase kinase kinase 11 (Homo sapiens, UniProt Q16584); test: Inhibition of human MLK3 by ATP-competitive binding assay
Target sequence in this assay (Q16584 whole entry): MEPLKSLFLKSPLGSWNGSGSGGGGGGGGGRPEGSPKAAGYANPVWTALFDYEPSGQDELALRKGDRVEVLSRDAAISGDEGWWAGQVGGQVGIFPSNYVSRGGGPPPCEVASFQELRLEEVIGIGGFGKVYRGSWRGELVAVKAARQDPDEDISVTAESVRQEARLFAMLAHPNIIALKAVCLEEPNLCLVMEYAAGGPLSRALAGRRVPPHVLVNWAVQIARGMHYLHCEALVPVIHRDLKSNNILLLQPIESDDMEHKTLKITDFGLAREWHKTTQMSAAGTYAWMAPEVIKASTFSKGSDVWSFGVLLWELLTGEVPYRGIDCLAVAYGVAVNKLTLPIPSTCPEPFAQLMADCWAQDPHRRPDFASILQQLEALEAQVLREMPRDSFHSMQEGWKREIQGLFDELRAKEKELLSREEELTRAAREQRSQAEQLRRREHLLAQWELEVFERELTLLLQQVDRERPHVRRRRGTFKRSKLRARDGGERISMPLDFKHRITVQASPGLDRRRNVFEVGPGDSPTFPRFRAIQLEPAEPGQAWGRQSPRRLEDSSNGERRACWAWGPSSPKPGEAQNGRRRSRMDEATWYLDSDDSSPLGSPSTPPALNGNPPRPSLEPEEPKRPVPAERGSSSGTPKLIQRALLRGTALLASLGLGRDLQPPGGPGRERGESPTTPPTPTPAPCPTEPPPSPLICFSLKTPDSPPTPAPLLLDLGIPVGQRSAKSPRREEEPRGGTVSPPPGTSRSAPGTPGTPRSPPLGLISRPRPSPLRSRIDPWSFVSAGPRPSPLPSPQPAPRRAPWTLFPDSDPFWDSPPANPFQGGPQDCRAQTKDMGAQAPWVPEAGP

[4] = molecular target: T1, Mitogen-activated protein kinase kinase kinase 11; test: Inhibition of human MLK3 at 0.5 uM by ATP-competitive binding assay relative to control
Target sequence in this assay (Q16584 whole entry, looked up): as the sequence (Q16584 whole entry) above

Row | SMILES | logP [1] | Papp [2] | IC50 [3] | inhibition [4]
1 | CCS(=O)(=O)N1CC[C@H](Nc2c(Br)cnc3nc(-c4cc(C)n(-c5cccc(C(=O)NCCN(C)C)c5C)c4C)[nH]c23)C1 | 4.86 | 21.2 ×10⁻⁶ cm/s | – | –
2 | O=C1Nc2ccc3ncsc3c2/C1=C/c1c[nH]cn1 | – | – | 144 nM | –
3 | CCS(=O)(=O)N1CC[C@H](Nc2c(Br)cnc3[nH]c(-c4cc(C)n(-c5ccc(C(=O)N6CCN(C)CC6)cc5C)c4C)nc23)C1 | 5.16 | 13.9 ×10⁻⁶ cm/s | 25 nM | –
4 | CCS(=O)(=O)N1CC[C@H](Nc2c(Br)cnc3[nH]c(-c4cc(C)n(-c5cc(NC(=O)CN6CCN(C)CC6)ccc5C)c4C)nc23)C1 | 5.89 | – | – | –
5 | CCS(=O)(=O)N1CC[C@H](Nc2c(Br)cnc3[nH]c(-c4cc(C)n(-c5cc(C(=O)N6CCN(C)CC6)ccc5C)c4C)nc23)C1 | 5.06 | 35.7 ×10⁻⁶ cm/s | – | –
6 | CCS(=O)(=O)N1CC[C@H](Nc2c(Br)cnc3[nH]c(-c4cc(C)n(-c5cccc(C(=O)N6CCOCC6)c5)c4C)nc23)C1 | 3.69 | 15.2 ×10⁻⁶ cm/s | 6 nM | –
7 | CCS(=O)(=O)N1CC[C@H](Nc2c(Br)cnc3[nH]c(-c4cc(C)n(-c5ccc(NC(=O)CN(C)C)cc5C)c4C)nc23)C1 | 4.53 | 48.7 ×10⁻⁶ cm/s | – | –
8 | CC(C)c1nn(C)cc1-c1nc2cc(Br)cnc2[nH]1 | – | – | – | 21%
9 | CCS(=O)(=O)N1CC[C@H](Nc2c(Br)cnc3nc(-c4cc(C)n(-c5cccc(NC(=O)CN6CCOCC6)c5C)c4C)[nH]c23)C1 | 4.28 | 47.8 ×10⁻⁶ cm/s | – | –
10 | CCS(=O)(=O)N1CC[C@H](Nc2c(Br)cnc3nc(-c4cc(C)n(-c5cccc(NC(=O)CN(C)C)c5C)c4C)[nH]c23)C1 | 5.17 | 55.9 ×10⁻⁶ cm/s | – | –

The remaining lines, values ahead:

Row | logP [1] | Papp [2] | IC50 [3] | inhibition [4] | SMILES
11 | 3.52 | 8.91 ×10⁻⁶ cm/s | – | – | CCS(=O)(=O)N1CC[C@H](Nc2c(Br)cnc3[nH]c(-c4cc(C)n(-c5ccc(C(=O)N(C)CCN(C)C)cc5)c4C)nc23)C1
12 | 3.92 | 13.1 ×10⁻⁶ cm/s | 6 nM | – | CCS(=O)(=O)N1CC[C@H](Nc2c(Br)cnc3[nH]c(-c4cc(C)n(-c5ccc(C(=O)N6CCOCC6)cc5)c4C)nc23)C1
13 | 3.86 | 2.53 ×10⁻⁶ cm/s | – | – | CCS(=O)(=O)N1CC[C@H](Nc2c(Br)cnc3[nH]c(-c4cc(C)n(-c5ccc(C(=O)NCCN(C)C)cc5)c4C)nc23)C1
14 | 4.81 | 3.42 ×10⁻⁶ cm/s | 27 nM | – | CCS(=O)(=O)N1CC[C@H](Nc2c(Br)cnc3[nH]c(-c4cc(C)n(-c5cccc(C(=O)NCCN(C)C)c5)c4C)nc23)C1
